Reference: US20250346592A1 (Celgene Corporation, priority 2022, published 2025)

Key:
hPAD4 enzyme [1] = target: T1, hPAD4 enzyme (Homo sapiens (Human), UniProt Q9UM07); test: RFMS1 assay (RapidFire mass spectrometry, BAEE substrate); format: biochemical; settings: 5 nM hPAD4, 250 μM BAEE, 30 min preincubation at 37° C., 90 min reaction; read-out: RFMS 1 IC50
Experimental: Compounds were solubilized in 100% DMSO to achieve a 10 mM compound concentration. Compound stock solutions were stored at RT. A series of dilutions were prepared in DMSO and mixed 8 times with 20 μL mixing volume. Final top concentration of compound in the assay is 50 μM. Final assay conditions were as follows: • Reaction volume: 26 μl • Assay buffer: 25 mM hepes, pH 7.5, 5 mM NaCl, 1 mM DTT, 0.2 mg/ml BSA, 0.01% CHAPS, 50 µM Calcium, and 5 μM TPEN • Final concentrations: 5 nM hPAD4 enzyme, 250 µM BAEE, and 0.5% DMSO • Total incubation time: 30 mins compound and enzyme preincubation at 37° C., 90 min enzyme/substrate reaction, 30 min reaction with phenyl glyoxal at 37° C. • Stop solution: 40 μl 5% TCA in ACN • 0.13 μL of compound solution was added to 13 μL of 10 nM PAD4 in assay buffer. After […] min 13 μl of 500 µM of BAEE was added in 25 mM hepes, pH 7.5, 5 mM NaCl, 1 mM DTT, 0.2 mg/ml BSA, 0.01% CHAPS, 50 μM Calcium, 5 μM TPEN was added and the reaction incubated for 90 min at 37° C. The enzymatic reaction was quenched by addition of 15 μl of 6.1N TCA, 100% Final Concentration is 20%, 35 μl of 8.5 mM phenyl glyoxal (final concentration 4 mM) is then added and the reaction is incubated for 30 min at 37° C.
After 30 minutes the plates are spun down to remove all precipitate. The enzyme reaction was quenched with an equal volume of methanol containing internal standard (modified citrulline). Samples were loaded onto the Rapid Fire RF300 system (Agilent) wherein they were first sipped for 1000 ms and then directly loaded to a C18 separations cartridge using a mixture of acetonitrile containing 0.01% formic acid for 3000 ms desalting. The flow rate of the mobile phase was 1.5 ml/min. Once the samples were eluted from the cartridge, a mobile phase of acetonitrile containing 0.01% formic acid was used to move the samples into the mass spectrometer for 4000 ms at a flow rate of 1.25 ml/min/Sciex API5500 triple quadrupole mass spectrometer (Applied Biosystems) equipped with ESI was used to analyze the peptidyl citrulline and internal standard ions.
MRM transition of product and internal standard were monitored at m/z 424.5 to 350.4 and m/z 293 to 247 respectively. The dwell time for each transition was set at 200 ms, and the ESI voltage was used at 5500 with a source temperature of 400° C. Extracted ion peaks for each transition were integrated using the Rapid Fire Integrator software. Peak area of analyte was normalized with internal standard.).
Compounds having an activity designated as “A” provided an IC50≤10 nM; compounds having an activity designated as “B” provided an IC50 11-100 nM; compounds having an activity designated as “C” provided an IC50 101-500 nM; compounds having an activity designated as “D” provided an IC50 501-1000 nM; compounds having an activity designated as “E” provided an IC50>1000 nM.

hPAD4 enzyme [2] = target: T1, hPAD4 enzyme; test: RFMS2 assay (RapidFire mass spectrometry, TSTGGRQGSHH peptide substrate); format: biochemical; settings: 35 nM recombinant human PAD4, 500 μM TSTGGRQGSHH peptide, 30 minutes at room temperature; read-out: RFMS 2 IC50
How it was run: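 Recombinant human PAD4 (35 nM) with 500 μM TSTGGRQGSHH peptide in HEPES pH 7.4, 200 mM NaCl, 2 mM CaCl2, 5 mM DTT, 1.2% DMSO, 30 min at room temperature; 3-fold compound series, top 20 μM. Quenched with formic acid; substrate and citrullinated product quantified by RapidFire MRM mass spectrometry for IC50.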

T1 sequence (Q9UM07 whole entry): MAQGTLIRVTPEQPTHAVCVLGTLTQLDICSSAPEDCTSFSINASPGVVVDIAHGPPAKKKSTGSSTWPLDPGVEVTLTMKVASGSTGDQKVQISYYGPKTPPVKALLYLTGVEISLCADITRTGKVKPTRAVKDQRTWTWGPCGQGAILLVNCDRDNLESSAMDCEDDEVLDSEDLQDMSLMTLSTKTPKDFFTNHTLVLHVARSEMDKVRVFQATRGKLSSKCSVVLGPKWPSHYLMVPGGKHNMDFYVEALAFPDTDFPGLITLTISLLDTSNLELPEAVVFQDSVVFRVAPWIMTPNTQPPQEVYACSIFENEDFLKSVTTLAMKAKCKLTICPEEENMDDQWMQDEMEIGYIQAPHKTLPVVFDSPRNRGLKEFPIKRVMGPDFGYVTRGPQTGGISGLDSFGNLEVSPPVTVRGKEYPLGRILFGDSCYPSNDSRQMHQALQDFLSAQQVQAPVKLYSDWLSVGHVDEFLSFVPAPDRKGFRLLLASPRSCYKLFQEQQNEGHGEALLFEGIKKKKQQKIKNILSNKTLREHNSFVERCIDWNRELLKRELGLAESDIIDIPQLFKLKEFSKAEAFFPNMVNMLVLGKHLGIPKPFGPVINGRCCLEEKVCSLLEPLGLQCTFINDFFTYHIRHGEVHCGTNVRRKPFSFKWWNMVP

Compound	IC50 (hPAD4 enzyme [1])	IC50 (hPAD4 enzyme [2])
COc1cccc2cc(-c3nc4cc5c(cc4n3C)CCN(C[C@H]3COCCN3)C5=O)n(Cc3ncco3)c12 [Example 232, (S)-2-(7-methoxy-1-(oxazol-2-ylmethyl)-1H-indol-2-yl)-1-methyl-6-(morpholin-3-ylmethyl)-1,6,7,8-tetrahydro-5H-imidazo[4,5-g]isoquinolin-5-one]	101 to 500 nM	101 to 500 nM
C[C@H](COc1cccc2cc(-c3nc4cc5c(cc4n3C)CCN(C[C@H](N)CF)C5=O)n(CC3CC3)c12)n1ccnc1 [Example 213, 2-(7-((R)-2-(1H-imidazol-1-yl)propoxy)-1-(cyclopropylmethyl)-1H-indol-2-yl)-6-((S)-2-amino-3-fluoropropyl)-1-methyl-1,6,7,8-tetrahydro-5H-imidazo[4,5-g]isoquinolin-5-one]	≤ 10 nM	101 to 500 nM
Cn1c(-c2cc3ccccc3n2CC2CC2)nc2cc3c(cc21)CCN(C[C@H](N)CF)C3=O [Example 12, (S)-6-(2-amino-3-fluoropropyl)-2-(1-(cyclopropylmethyl)-1H-indol-2-yl)-1-methyl-1,6,7,8-tetrahydro-5H-imidazo[4,5-g]isoquinolin-5-one]	101 to 500 nM	101 to 500 nM
C[C@@H](Cn1ccnc1)Oc1cccc2cc(-c3nc4cc5c(cc4n3C)CCN(C[C@H](N)CF)C5=O)n(CC3CC3)c12 [Example 222, 2-(7-(((S)-1-(1H-imidazol-1-yl)propan-2-yl)oxy)-1-(cyclopropylmethyl)-1H-indol-2-yl)-6-((S)-2-amino-3-fluoropropyl)-1-methyl-1,6,7,8-tetrahydro-5H-imidazo[4,5-g]isoquinolin-5-one]	11 to 100 nM	101 to 500 nM
COc1cccc2cc(-c3nc4cc5c(cc4n3C)CCN(C[C@H]3COCCN3)C5=O)n(CC3CC3)c12 [Example 231, (S)-2-(1-(cyclopropylmethyl)-7-methoxy-1H-indol-2-yl)-1-methyl-6-(morpholin-3-ylmethyl)-1,6,7,8-tetrahydro-5H-imidazo[4,5-g]isoquinolin-5-one]	101 to 500 nM	501 to 1000 nM
COc1cc(F)cc2cc(-c3nc4cc5c(cc4n3C)CCN(C[C@H](N)CF)C5=O)n(CC3CC3)c12 [Example 65, (S)-6-(2-amino-3-fluoropropyl)-2-(1-(cyclopropylmethyl)-5-fluoro-7-methoxy-1H-indol-2-yl)-1-methyl-1,6,7,8-tetrahydro-5H-imidazo[4,5-g]isoquinolin-5-one]	11 to 100 nM	101 to 500 nM
Cn1c(-c2cc3cccc(OCCn4ccnc4)c3n2CC2CC2)nc2cc3c(cc21)CCN(C[C@H](N)CF)C3=O [Example 198, (S)-2-(7-(2-(1H-imidazol-1-yl)ethoxy)-1-(cyclopropylmethyl)-1H-indol-2-yl)-6-(2-amino-3-fluoropropyl)-1-methyl-1,6,7,8-tetrahydro-5H-imidazo[4,5-g]isoquinolin-5-one]	≤ 10 nM	11 to 100 nM
Cc1cccc2cc(-c3nc4cc5c(cc4n3C)CCN(C[C@H](N)CF)C5=O)n(CC3CC3)c12 [Example 48, (S)-6-(2-amino-3-fluoropropyl)-2-(1-(cyclopropylmethyl)-7-methyl-1H-indol-2-yl)-1-methyl-1,6,7,8-tetrahydro-5H-imidazo[4,5-g]isoquinolin-5-one]	101 to 500 nM	101 to 500 nM
CN[C@H](C)CN1CCc2cc3c(cc2C1=O)nc(-c1cc2ccccc2n1CC1CC1)n3C [Example 1, (R)-2-(1-(cyclopropylmethyl)-1H-indol-2-yl)-1-methyl-6-(2-(methylamino)propyl)-1,6,7,8-tetrahydro-5H-imidazo[4,5-g]isoquinolin-5-one]	501 to 1000 nM	101 to 500 nM
C[C@@H](N)CN1CCc2cc3c(cc2C1=O)nc(-c1cc2ccccc2n1CC1CC1)n3C [Example 5, (R)-6-(2-aminopropyl)-2-(1-(cyclopropylmethyl)-1H-indol-2-yl)-1-methyl-1,6,7,8-tetrahydro-5H-imidazo[4,5-g]isoquinolin-5-one]	101 to 500 nM	101 to 500 nM
COc1cccc2cc(-c3nc4cc5c(cc4n3C)CCN(C[C@H](N)CF)C5=O)n(CC3CC3)c12 [Example 53, (S)-6-(2-amino-3-fluoropropyl)-2-(1-(cyclopropylmethyl)-7-methoxy-1H-indol-2-yl)-1-methyl-1,6,7,8-tetrahydro-5H-imidazo[4,5-g]isoquinolin-5-one]	11 to 100 nM	101 to 500 nM
Cn1c(-c2cc3ccccc3n2CC2CC2)nc2cc3c(c(F)c21)CCN(C[C@H](N)CF)C3=O [Example 236, (S)-6-(2-amino-3-fluoropropyl)-2-(1-(cyclopropylmethyl)-1H-indol-2-yl)-9-fluoro-1-methyl-1,6,7,8-tetrahydro-5H-imidazo[4,5-g]isoquinolin-5-one]	101 to 500 nM	501 to 1000 nM
C[C@H](CN1CCc2cc3c(cc2C1=O)nc(-c1cc2ccccc2n1CC1CC1)n3C)NCCF [Example 3, (R)-2-(1-(cyclopropylmethyl)-1H-indol-2-yl)-6-(2-((2-fluoroethyl)amino)propyl)-1-methyl-1,6,7,8-tetrahydro-5H-imidazo[4,5-g]isoquinolin-5-one]	> 1000 nM	> 1000 nM
Cn1c(-c2cc3cccc(OCCc4cnoc4)c3n2CC2CC2)nc2cc3c(cc21)CCN(C[C@H](N)CF)C3=O [Example 204, (S)-6-(2-amino-3-fluoropropyl)-2-(1-(cyclopropylmethyl)-7-(2-(isoxazol-4-yl)ethoxy)-1H-indol-2-yl)-1-methyl-1,6,7,8-tetrahydro-5H-imidazo[4,5-g]isoquinolin-5-one]	≤ 10 nM	11 to 100 nM
Cn1c(-c2cc3cccc(OCCn4cnnc4)c3n2CC2CC2)nc2cc3c(cc21)CCN(C[C@H](N)CF)C3=O [Example 210, (S)-2-(7-(2-(4H-1,2,4-triazol-4-yl)ethoxy)-1-(cyclopropyl-methyl)-1H-indol-2-yl)-6-(2-amino-3-fluoropropyl)-1-methyl-1,6,7,8-tetrahydro-5H-imidazo[4,5-g]isoquinolin-5-one]	11 to 100 nM	11 to 100 nM
Cn1c(-c2cc3cccc(OC[C@@H]4CNC(=O)O4)c3n2CC2CC2)nc2cc3c(cc21)CCN(C[C@H](N)CF)C3=O [Example 206, (S)-5-(((2-(6-((S)-2-amino-3-fluoropropyl)-1-methyl-5-oxo-5,6,7,8-tetrahydro-1H-imidazo[4,5-g]isoquinolin-2-yl)-1-(cyclopropylmethyl)-1H-indol-7-yl)oxy)methyl)oxazolidin-2-one]	≤ 10 nM	11 to 100 nM
COc1cccc2cc(-c3nc4cc5c(cc4n3C)CCN(C[C@H](N)CF)C5=O)n(Cc3cc(C)no3)c12 [Example 113, (S)-6-(2-amino-3-fluoropropyl)-2-(7-methoxy-1-((3-methylisoxazol-5-yl)methyl)-1H-indol-2-yl)-1-methyl-1,6,7,8-tetrahydro-5H-imidazo[4,5-g]isoquinolin-5-one]	11 to 100 nM	101 to 500 nM
COC(=O)N(C)CCOc1cccc2cc(-c3nc4cc5c(cc4n3C)CCN(C[C@H](N)CF)C5=O)n(CC3CC3)c12 [Example 201, methyl (S)-(2-((2-(6-(2-amino-3-fluoropropyl)-1-methyl-5-oxo-5,6,7,8-tetrahydro-1H-imidazo[4,5-g]isoquinolin-2-yl)-1-(cyclopropylmethyl)-1H-indol-7-yl)oxy)ethyl)(methyl) carbamate]	≤ 10 nM	101 to 500 nM
